Reference: US20240393292A1, “ALLERGY ANTIGEN AND EPITOPE THEREOF” (HOYU CO., LTD., priority 2019, published 2024)

Test system: IgE antibody present in the serum of a wheat-allergic patient
Assay: Wheat epitope mapping (1): peptide array of overlapping 15-amino-acid peptides, chemiluminescence
Type: binding, human
Conditions: bound = chemiluminescence value minus N2nd value of 5 non-wheat-allergic subjects at least 35,000; serum of 49 patients
Experimental: Epitope mapping was carried out using a library of overlapping peptides (length: 15 amino acids) corresponding to the amino acid sequences identified as allergy components of wheat. Specifically, the library of overlapping peptides was prepared on the basis of the amino acid sequences of SEQ ID NOs: 2, 4, 6, 8, 10, 12, 14, 16, 18, 20, 22, 24, 26 and 28.
The peptides to be synthesized were shifted by 10 amino acids.
For preparation of peptide arrays, the Intavis CelluSpots™ technique was used. Specifically, the peptide arrays were prepared by the following procedure: (1) synthesizing peptides of interest on amino-modified cellulose disks using an automated chemical synthesis apparatus (Intavis MultiPep RS), (2) dissolving the amino-modified cellulose disks to obtain a cellulose-bound peptide solution, and (3) spotting the cellulose-bound peptides onto coated glass slides. The details of each procedure are as described below.
Peptide synthesis was carried out in incremental steps through 9-fluorenylmethoxycarbonyl (Fmoc) chemical reaction on amino-modified cellulose disks in 384-well synthesis plates. Specifically, amino acids in which a Fmoc group is bonded to an amino group were activated in a solution of N,N′-diisopropylcarbodiimide (DIC) and 1-hydroxybenzotriazole (HOBt) in dimethylformamide (DMF) and added dropwise to the cellulose disks so that the Fmoc group-bound amino acids were bound to the amino groups on the cellulose disks (coupling). Unreacted amino groups were capped with acetic anhydride and washed with DMF. Furthermore, the Fmoc groups were eliminated from the amino groups of the amino acids bound to the amino groups on the cellulose disks by treatment with piperidine and washing with DMF. The amino acids bound to the amino groups on the cellulose disks were repetitively subjected to the coupling, the capping, and the Fmoc group elimination described above to elongate the amino terminus for peptide synthesis.
The peptides-bound cellulose disks of interest obtained above in the subsection titled “(1) Synthesis of peptide” were transferred to 96-well plates and treated with a side chain deprotection mixed solution of trifluoroacetic acid (TFA), dichloromethane, triisopropylsilane (TIPS), and water for deprotection of amino acid side chains. Then, the deprotected cellulose-bound peptides were dissolved in a mixed solution of TFA, […] acid (TFMSA), TIPS, and water and precipitated in […] methyl ether (TBME), and the precipitate was resuspended in dimethyl sulfoxide (DMSO) and mixed with a mixed solution of NaCl, sodium citrate, and water to obtain a peptide solution for slide spotting.
The peptide solution for slide spotting obtained above in the subsection titled “(2) Dissolution of amino-modified cellulose disk” was spotted onto Intavis CelluSpots™ slides using Intavis Slide Spotting Robot, and the slides were dried to prepare peptide arrays.
The presence or absence of binding, to each peptide fragment, of an IgE antibody present in the serum of a wheat-allergic patient was measured through antigen-antibody reaction using the peptide arrays. […]

Binding of patient-specific IgE antibodies to 15-residue peptide, confirmed to bind:
SEQ ID NO: 1142: common 15-residue epitope sequence of polypeptide (E16) (TEPSQLSIDQNAQGL; REGION 1..15: note = epitope)
SEQ ID NO: 191: common 15-residue epitope sequence of polypeptide (E3) (SQQQQPFPQQQQPLL; REGION 1..15: note = epitope)
SEQ ID NO: 2004: common 15-residue epitope sequence of polypeptide (E33) (STGTIGKRFASINVE; REGION 1..15: note = epitope)
SEQ ID NO: 562: common 15-residue epitope sequence of polypeptide (E8) (KPSQQQPLPLQQILW; REGION 1..15: note = epitope)
SEQ ID NO: 2631: common 15-residue epitope sequence of polypeptide (E45) (RFEKEAAEMNKRSFK; REGION 1..15: note = epitope)
SEQ ID NO: 1977: common 15-residue epitope sequence of polypeptide (E32) (DPTGAKVTKAAIKKK; REGION 1..15: note = epitope)
SEQ ID NO: 29: common 15-residue epitope sequence of polypeptide (E1) (QQILWYHQQQPIQQQ; REGION 1..15: note = epitope)
SEQ ID NO: 2217: common 15-residue epitope sequence of polypeptide (E37) (VSRLLRGIRNYRVAI; REGION 1..15: note = epitope)
SEQ ID NO: 1789: common 15-residue epitope sequence of polypeptide (E29) (SGKELEALPKFLKNG; REGION 1..15: note = epitope)
SEQ ID NO: 493: common 15-residue epitope sequence of polypeptide (E7) (PQQPYPQQQPQYLQP; REGION 1..15: note = epitope)
SEQ ID NO: 974: common 15-residue epitope sequence of polypeptide (E13) (QPFPQQQQPIIILQQ; REGION 1..15: note = epitope)
SEQ ID NO: 1598: common 15-residue epitope sequence of polypeptide (E25) (PQQPAQLEAIRSLVL; REGION 1..15: note = epitope)
SEQ ID NO: 2309: common 15-residue epitope sequence of polypeptide (E39) (QSRYDAIRAIIYSIV; REGION 1..15: note = epitope)
SEQ ID NO: 1166: common 15-residue epitope sequence of polypeptide (E17) (PGQQQQFPPQQPYPQ; REGION 1..15: note = epitope)
SEQ ID NO: 2342: common 15-residue epitope sequence of polypeptide (E40) (HDIDRCAYVTEIVLA; REGION 1..15: note = epitope)
SEQ ID NO: 1403: common 15-residue epitope sequence of polypeptide (E22) (QYLQPQQPISQQQAQ; REGION 1..15: note = epitope)
SEQ ID NO: 1566: common 15-residue epitope sequence of polypeptide (E24) (PQQPQQPFPQTQQPQ; REGION 1..15: note = epitope)
